Several values for one entry are separate records, joined by “and”; a condition that tells them apart may be missing. Equal entries are not always repeated.
Key:
Type in all cases: in vivo
Details in all cases: no safener
[1] = system: Corn; assay: Compatibility with crop plants, greenhouse, post-emergence, visual scoring
Procedure: (§1) Seeds or rhizome pieces of monocotyledonous and dicotyledonous weeds were placed in sandy loam soil in plastic pots, covered with soil and cultivated in a greenhouse under good growth conditions. Three weeks after sowing, the test plants were treated at the 2- to 4-leaf stage. The compounds according to the invention, formulated as wettable powders or as emulsion concentrates, were sprayed onto the green parts of the plants in various dosages at a water application rate of 100 to 800 I/ha (converted). After the test plants had been left to stand in the greenhouse for 3 to 4 weeks under optimum growth conditions, the effect of the preparations was scored visually in comparison to untreated controls.
(§2) In further greenhouse trials, seeds of a relatively large number of crop plants and weeds were placed into sandy loam soil and covered with soil. Some of the pots were immediately treated as described in section 1, the others were placed in a greenhouse until the plants had developed two to three true leaves and were then sprayed with various dosages of the herbicide/safener combinations according to the invention, as described in section 2. Four to five weeks after the application and standing time in the greenhouse, it was established by visual scoring that the herbicide/safener combinations tested, i.e. of 2-iodo-N-[(4-methoxy-6-methyl-1,3,5-triazin-2-yl)carbamoyl]benzenesulfonamide and the compounds of the formula (I) listed in table A, did, especially with the safeners of the compounds of the formulae S1-1, S1-6, S1-9, S2-1 and S3-1, benoxacor, furilazole, fluxofenim, not cause any damage to crop plants such as cotton, oilseed rape, sugar cane, sugar beet and also Gramineae crops such as barley, wheat, rye, millet, corn or rice when applied by the pre-emergence method or the post-emergence method.
(§3) The results of selected trials with respect to the crop plant compatibility are shown below in an exemplary manner using as an example safeners improving 2-iodo-N-[(4-methoxy-6-methyl-1,3,5-triazin-2-yl)carbamoyl]benzenesulfonamide (A-0) or its Na^+ salt (A-2) in various crop plants, i.e. wheat, barley and corn.

[2] = system: Barley; assay: as above
Procedure: as §1, §2, §3

[3] = system: Wheat; assay: as above
Procedure: as §1, §2, §3

[4] = system: Corn; assay: Compatibility with crop plants, greenhouse, pre-emergence, visual scoring
Text: Seeds or rhizome pieces of monocotyledonous and dicotyledonous weed plants were placed in sandy loam soil in cardboard pots and covered with soil. The active compounds (A) and (B), formulated as wettable powders or emulsion concentrates, were then applied to the surface of the covering soil as aqueous suspensions or emulsions in different dosages at a water application rate of 100 to 800 I/ha (converted).
After the treatment, the pots were placed in a greenhouse and kept under good growth conditions for the weeds. Visual scoring of the plant damage or emergence damage was carried out after the test plants had emerged after a test period of 3 to 4 weeks, in comparison to untreated controls. […] The combinations of 2-iodo-N—[(4-methoxy-6-methyl-1,3,5-triazin-2-yl)carbamoyl]benzenesulfonamide and compounds of the formula (I) mentioned in table A especially with the safeners of the compounds of the formulae S1-1, S1-9, S2-1 and S3-1 have very good synergistic herbicidal activity against harmful plants such as Sinapis alba, Chrysanthemum segetum, Avena sativa, Stellaria media, Echinochloa crus-galli, Lolium multiflorum, Setaria viridis, Abutilon theophrasti, Amaranthus retroflexus and Panicum miliaceum when applied by the pre-emergence method at an application rate of 100 g or less of active substance per hectare. […]

[5] = active compound 6.25 g of ai/ha
[6] = active compound 12.5 g of ai/ha

SMILES: COc1nc(C)nc(NC(=O)NS(=O)(=O)c2ccccc2I)n1 [Compound A-0, 2-iodo-N-[(4-methoxy-6-methyl-1,3,5-triazin-2-yl)carbamoyl]benzenesulfonamide]
- Damage to the crop plant in % [1, 5]: 20%
- Damage to the crop plant in % ([1]; active compound 25 g of ai/ha): 50%
- Damage to the crop plant in % [2, 5]: 20% and 10%
- Damage to the crop plant in % [2, 6]: 20%
- Damage to the crop plant in % [3, 5]: 20%
- Damage to the crop plant in % [3, 6]: 20%
- Damage to the crop plant in % [4, 6]: 65%
- Damage to the crop plant in % ([4]; active compound 50 g of ai/ha): 60%

Reference: patent US20100317517A1, “HERBICIDE-SAFENER COMBINATION” (BAYER CROPSCIENCE AG, priority 2007, published 2010)
